According to ChEMBL document CHEMBL5241125, “Overcoming intrinsic resistance in gram-negative bacteria using small molecule adjuvants” (Bioorg Med Chem Lett, 2023):
pKd: −log10 of the molar value. Where a SMILES comes first, the peptide text is derived from it. Bridges are numbered along the chain shown (N, C = ends). [ ]: non-standard residue; d: D form. Dab = NCC[C@H](N)C(=O)O

Assays:
Acinetobacter baumannii [1] = assay: Antibacterial adjuvant activity against Acinetobacter baumannii AB5075 assessed as decrease in clarithromycin MIC at 30 uM incubated for 16 hrs in presence of clarithromycin by broth microdilution method; format: functional
Acinetobacter baumannii [2] = assay: Antibacterial adjuvant activity against Acinetobacter baumannii AB5075 assessed as decrease in clarithromycin MIC at 10 uM incubated for 16 hrs in presence of clarithromycin by broth microdilution method; format: functional
Acinetobacter baumannii [3] = assay: Antibacterial adjuvant activity against Acinetobacter baumannii AB5075 assessed as decrease in vancomycin MIC at 30 uM incubated for 16 hrs in presence of vancomycin by broth microdilution method; format: functional
Escherichia coli [4] = assay: Antibacterial activity against Escherichia coli IH3080 assessed as reduction in bacterial growth by measuring fold change incubated for 18 hrs by spectrophotometry; format: functional
Salmonella typhimurium [5] = assay: Antibacterial activity against Salmonella typhimurium SH5014 assessed as reduction in bacterial growth by measuring fold change incubated for 18 hrs by spectrophotometry; format: functional, Salmonella enterica subsp. enterica serovar Typhimurium
Escherichia coli [6] = assay: Antibacterial activity against Escherichia coli IH3080 assessed as reduction in bacterial growth by measuring fold change at 3 ug/ml incubated for 18 hrs by spectrophotometry; format: functional; settings: dose 3 µg/ml
Salmonella typhimurium [7] = assay: Antibacterial activity against Salmonella typhimurium SH5014 assessed as reduction in bacterial growth by measuring fold change at 3 ug/ml incubated for 18 hrs by spectrophotometry; format: functional, Salmonella enterica subsp. enterica serovar Typhimurium; settings: dose 3 µg/ml
Pseudomonas aeruginosa [8] = assay: Antibacterial adjuvant activity against Pseudomonas aeruginosa PAO1 assessed as decrease in azithromycin MIC at 60 uM incubated for 16 hrs in presence of azithromycin by broth microdilution method; format: functional
Pseudomonas aeruginosa [9] = assay: Antibacterial adjuvant activity against Pseudomonas aeruginosa PAO1 assessed as decrease in azithromycin MIC at 40 uM incubated for 16 hrs in presence of azithromycin by broth microdilution method; format: functional
Acinetobacter baumannii [10] = assay: Synergistic antibacterial activity against colistin-sensitive Acinetobacter baumannii ATCC 17978 infected in C57BL/6 mouse assessed as increase in survival rate at 5 mg/kg,po administered in presence of pentamidine for 7 days; format: functional; settings: ATCC 17978, 168 h, time 7 day
Acinetobacter baumannii [11] = assay: Synergistic antibacterial activity against colistin-resistant Acinetobacter baumannii ATCC 17978 infected in C57BL/6 mouse assessed as increase in survival rate at 50 mg/kg,po administered in presence of pentamidine for 7 days; format: functional; settings: ATCC 17978, 168 h, time 7 day
Acinetobacter baumannii [12] = assay: Synergistic antibacterial activity against colistin-sensitive Acinetobacter baumannii ATCC 17978 infected in C57BL/6 mouse assessed as increase in survival rate at 10 mg/kg,po administered in presence of novobiocin for 7 days; format: functional; settings: ATCC 17978, 168 h, time 7 day
[13] = Binding affinity to Escherichia coli Lipid A assessed as dissociation constant
Acinetobacter baumannii [14] = assay: Synergistic antibacterial activity against colistin-resistant Acinetobacter baumannii ATCC 17978 infected in C57BL/6 mouse assessed as increase in survival rate at 10 mg/kg,po administered in presence of novobiocin for 7 days; format: functional; settings: ATCC 17978, 168 h, time 7 day
Acinetobacter baumannii [15] = assay: Synergistic antibacterial activity against Acinetobacter baumannii infected in mouse assessed as increase in survival rate at 5 mg/kg,po administered bid in presence of SPR741 for 3 days; format: functional; settings: 72 h, time 3 day
Acinetobacter baumannii [16] = assay: Synergistic antibacterial activity against Acinetobacter baumannii infected in mouse assessed as reduction of bacterial burden in lung at 5 mg/kg,po administered bid in presence of SPR741 for 3 days; format: functional; settings: time 3 day
Acinetobacter baumannii [17] = assay: Antibacterial activity against Acinetobacter baumannii infected in mouse assessed as increase in survival rate at 5 mg/kg,po administered bid for 3 days; format: functional; settings: 72 h, time 3 day
Acinetobacter baumannii [18] = assay: Antibacterial activity against Acinetobacter baumannii infected in mouse assessed as reduction of bacterial burden in lung at 5 mg/kg,po administered bid for 3 days; format: functional; settings: time 3 day
Acinetobacter baumannii [19] = assay: Synergistic antibacterial activity against Acinetobacter baumannii infected in mouse assessed as increase in survival rate at 60 mg/kg,po administered bid in presence of rifampin for 3 days; format: functional; settings: 72 h, time 3 day
Acinetobacter baumannii [20] = assay: Synergistic antibacterial activity against Acinetobacter baumannii infected in mouse assessed as reduction of bacterial burden in lung at 60 mg/kg,po administered bid in presence of rifampin for 3 days; format: functional; settings: time 3 day

With `Nc1nc(-c2ccc(NC(=O)c3cc(Cl)cc(Cl)c3)cc2)c[nH]1` as the compound, how does the MIC (Acinetobacter baumannii [1]) read?
The MIC was 0.25 µg/mL.

And the MIC (Acinetobacter baumannii [2])?
The MIC was 2 µg/mL.

And the MIC (Acinetobacter baumannii [3])?
Its MIC is 1 µg/mL.

What does the source list for `Nc1ncc(-c2ccc(NC(=O)c3cc(Br)cc(Br)c3)cc2)[nH]1`?
MIC (Acinetobacter baumannii [1]): 0.25 µg/mL; MIC (Acinetobacter baumannii [2]): 2 µg/mL; MIC (Acinetobacter baumannii [3]): 1 µg/mL

For `CC(C)C[C@@H]1NC(=O)[C@@H](Cc2ccccc2)NC(=O)[C@H](CCN)NC(=O)[C@@H](NC(=O)[C@H](CCN)NC(=O)[C@@H](NC(=O)[C@@H](N)CCN)[C@H](C)O)CCNC(=O)[C@H]([C@@H](C)O)NC(=O)[C@H](CCN)NC(=O)[C@H](CCN)NC1=O`, which “fold change (FC)” value (Escherichia coli [4]) is on record?
Its value is 300.

What about the “fold change (FC)” value (Salmonella typhimurium [5]) of the same compound?
Its value is 300.

For `CC(C)C[C@@H]1NC(=O)[C@@H](Cc2ccccc2)NC(=O)[C@H](CCN)NC(=O)[C@@H](NC(=O)[C@H](CCN)NC(=O)[C@@H](N)[C@H](C)O)CCNC(=O)[C@H]([C@@H](C)O)NC(=O)[C@H](CCN)NC(=O)[C@H](CCN)NC1=O`, which “fold change (FC)” value (Escherichia coli [6]) is on record?
The value was 10.

What about the “fold change (FC)” value (Salmonella typhimurium [7]) of the same compound?
Its value is 10.

For `NCCCC(c1c[nH]c(N)n1)c1cnc(N)[nH]1`, which MIC (Pseudomonas aeruginosa [8]) is on record?
Its MIC is 0.25 µg/mL.

What about the MIC (Pseudomonas aeruginosa [9]) of the same compound?
The MIC was 1 µg/mL.

Which results are given for `CC(C)C[C@@H]1NC(=O)[C@@H](CC(C)C)NC(=O)[C@H](CCN)NC(=O)[C@@H](NC(=O)[C@H](CCN)NC(=O)[C@@H](NC(=O)[C@@H](N)CCN)[C@H](C)O)CCNC(=O)[C@H]([C@@H](C)O)NC(=O)[C@H](CCN)NC(=O)[C@H](CCN)NC1=O`?
fold change (FC) (Escherichia coli [4]): 300; fold change (FC) (Salmonella typhimurium [5]): 300

With `CO[C@@H]1[C@@H](OC(N)=O)[C@@H](O)[C@H](Oc2ccc3c(O)c(NC(=O)c4ccc(O)c(CC=C(C)C)c4)c(=O)oc3c2C)OC1(C)C` [NOVOBIOCIN] as the compound, how does the survival at 5 mg/kg (Acinetobacter baumannii [10]) read?
Its survival at 5 mg/kg is 100%.

What about the survival at 50 mg/kg (Acinetobacter baumannii [11]) of the same compound?
The survival at 50 mg/kg was 90%.

With `N=C(N)c1ccc(OCCCCCOc2ccc(C(=N)N)cc2)cc1` [PENTAMIDINE] as the compound, how does the survival at 10 mg/kg (Acinetobacter baumannii [12]) read?
The survival at 10 mg/kg was 100%.

What about the pKd [13] of the same compound?
The pKd was 6.92.

What about the survival at 10 mg/kg (Acinetobacter baumannii [14]) of the same compound?
Its survival at 10 mg/kg is 90%.

Which results are given for `CO[C@H]1/C=C/O[C@@]2(C)Oc3c(C)c(O)c4c(O)c(c(/C=N/N5CCN(C)CC5)c(O)c4c3C2=O)NC(=O)/C(C)=C\C=C\[C@H](C)[C@H](O)[C@@H](C)[C@@H](O)[C@@H](C)[C@H](OC(C)=O)[C@@H]1C` [RIFAMPIN]?
survival at 5 mg/kg (Acinetobacter baumannii [15]): 90%; Activity (Acinetobacter baumannii [16]): 6 log10CFU/g; survival at 5 mg/kg (Acinetobacter baumannii [17]): 50%; Activity (Acinetobacter baumannii [18]): 2 log10CFU/g

Which survival at 60 mg/kg (Acinetobacter baumannii [19]) does the source give for `CC(=O)N[C@H](C(=O)N[C@H](CO)C(=O)N[C@H]1CCNC(=O)[C@H]([C@@H](C)O)NC(=O)[C@H](CCN)NC(=O)[C@H](CCN)NC(=O)[C@H](CC(C)C)NC(=O)[C@@H](Cc2ccccc2)NC(=O)[C@H](CCN)NC1=O)[C@@H](C)O` [SPR-741] (Ac-T[dS][Dab][Dab][dF]L[Dab][Dab]T; lactam 3-C) here?
The survival at 60 mg/kg was 90%.

What about the Activity (Acinetobacter baumannii [20]) of the same compound?
Its Activity is 6 log10CFU/g.
